Results published in patent publication US11136299B2, “Benzodiazepine derivatives for use in the treatment of Chlamydiales infections” (priority 2015, dated 2021).

Legend:
Format in all cases: cell-based
[1] = tested on: Chlamydia trachomatis (Ctr) strain L2/434/Bu; assay: Ctr infectivity assay, progeny infection, cellular protection by GFP microscopy quantification; conditions: HeLa229 cells, Ctr MOI1, progeny infection fixed 48 hpi, versus solvent-treated cells; for inhibition at 25 µM: Chlamydia trachomatis, HeLa 229, 48 h; for Cellular protection at 75 μM (%): 75 μM compound
From the text: (§1) Chlamydia trachomatis (Ctr). Laboratory-adapted strain L2/434/Bu (ATCC VR902B) was used in assays. Full biological and genetic information is available for this strain including complete genome sequence and defined proteome. This strain has a relatively low particle to infectivity ratio, perform efficient cell infection and has a higher viability than standard genital tract isolates with faster developmental cycle. Culture conditions have been described in (Wang Y., Kahane S., Cutcliffe L. T., Skilton R. J., Lambden P. R., Clarke I. N. Development of a transformation system for Chlamydia trachomatis: Restoration of glycogen biosynthesis by acquisition of a plasmid shuttle vector. PLoS Pathogen, 2011, 7(9): e1002258. doi: 10.1371/journal.ppat.1002258).
Compound application during Chlamydia trachomatis infection. HeLa229 cells were pretreated with Retro-1 and Retro-1 derivatives in concentrations of 25 μM and 75 μM for 1 hour until Chlamydia trachomatis (MOI1) were added to the cells. Compounds were present during infection. To obtain progeny infection, compound treated cells were lysed 24 h post infection (hpi) and lysate was used to infect fresh HeLa 229 cells. Infected cells of progeny infection were fixed with 4% Paraformaldehyde 48 hpi. Cells were stained for DAPI and Chlamydia trachomatis were detected by GFP-signal. Images are representative of n=2 independent experiments. Quantification of infected cells by Chlamydia trachomatis was realized from microscopy images with Image J software (FIG. 7) and cellular protection by compounds at 25 μM and 75 μM was then determined (Table 1) by comparison with solvent-treated cells (control) with the following equation: […]

[2] = tested on: Simkania negevensis (Sn) strain Z; assay: Sn infectivity assays (primary and progeny infection) in HeLa229 cells; conditions: for effect on primary and progeny infection for Simkania / concentration at which maximal inhibition of Sn replication was observed: HeLa cells; for effect on primary and progeny infection for Simkania: GroEL western, inclusion size, inclusion number, microscopy; for concentration at which maximal inhibition of Sn replication was observed: tested at 25 and 75 μM, FIGS. 1-4; for effect on Sn inclusions (transmission electron microscopy): infected HeLa cells versus DMSO-treated control, FIG. 5
Experimental: Simkania negevensis (Sn) strain Z (ATCC VR-1471) was prepared as described previously (Mehlitz A, Karunakaran K, Herweg J A, Krohne G, van de Linde S, Rieck E, Sauer M, Rudel T. The chlamydial organism Sn forms ER vacuole contact sites and inhibits ER-stress. Cell Microbiol 2014; 16(8):1224-1243).
Briefly, HeLa229 cells were grown to 50-70% confluence, were inoculated with Sn in RPMI1640 with 5% FBS, for 6 h at 35° C. in a humidified incubator at 5% CO2. Medium was replaced by infection medium (RPMI1640, Glutamax, 5% FBS, w/o HEPES) and growth was allowed for 3 days. Cells were mechanically detached and bacteria were released using ˜2-5 mm glass beads (Carl Roth). Low speed supernatant (600×g, 4° C. and 5 min) was subjected to high-speed centrifugation (20,000×g, 4° C. and 30 min) to pellet bacteria. Bacteria were washed twice with 5 ml SPG (250 mM sucrose, 50 mM sodium phosphate, 5 mM glutamate, pH 7.4), aliquoted and stored at −80° C. in SPG.
40,000 Hela cells were seeded in 12-well cluster plates, inhibitor-treated and infected as indicated in the respective experiment.
For infectivity assays cells were either fixed and stained at indicated time points (FIG. 2, 4; inclusion formation/primary infection) or bacteria were released via one freeze thaw cycle (−70° C./37° C.) followed by mechanical release through pipetting and transfer to fresh HeLa229 cells (1:25-1:50, progeny/infectivity). Cells were centrifuged for 1 h at 35° C. and medium exchanged to infection medium. Progeny was fixed at day 3 post infection and processed for staining (FIG. 3) or harvested for immunoblotting (FIG. 1). Infectivity assays were imaged on an automated fluorescence microscope Leica DMIR (FIG. 4). Numbers and average sizes of the SCV as well as host cell numbers were determined via GroEL and DAPI staining and images were analysed and quantified using FIJI (ImageJ) and Excel (Microsoft).
In progeny assay, bacteria are first grown in Hela299 cells treated with inhibitors, Retro-1 and VP-184 (25 and 75 μM), and the infectious particles from this primary infection are applied to fresh cells in the absence of inhibitor to measure the bacterial load (GroEL immunoblot) and inclusion formation (immunofluorescence microscopy).

[3] = tested on: Chlamydia trachomatis (Ctr) strain L2/434/Bu; assay: Ctr infectivity assay, primary and progeny infection, HSP60 immunoblot; conditions: Retro-1 50-75 μM in the primary infection; HeLa229 cells; FIG. 6
From the text: as §1, with “performs” for “perform”
Compound application during Ctr infection. HeLa229 cells were pretreated with Retro-1 in concentrations of 25, 50 and 75 μM for 30 min until Ctr (MOI1) were added to the cells. Retro-1 was present during infection.
Cells with primary infection were lysed 24 h post infection (hpi). To obtain progeny infection compound treated cells were lysed 48 hpi and lysate was used to infect fresh HeLa229 cells. Progeny infection was lysed 24 hpi and analyzed together with primary infection samples by immunoblot. Chlamydial growth was detected with antibodies against chlamydial HSP60 protein and Actin was used as loading control (FIG. 6).

CN1C(=O)CN=C(c2ccccc2Cl)c2cc(Cl)ccc21 [HA200, 7-chloro-5-(2-chlorophenyl)-1-methyl-1,3-dihydro-2H-benzo[e][1,4]diazepin-2-one]
inhibition at 25 µM ([1]; 25 μM compound): 47%

O=C1CN=C(c2ccccc2)c2cc(Br)cc(Br)c2N1 [HA061, 7,9-dibromo-5-phenyl-1,3-dihydro-2H-benzo[e][1,4]diazepin-2-one]
inhibition at 25 µM ([1]; 25 μM compound): 57.8%

CCC(=O)N1CC(=O)Nc2ccc(Br)cc2C1c1ccccc1 (stereo not drawn) [Retro-1, 7-bromo-5-phenyl-4-propionyl-1,3,4,5-tetrahydro-2H-benzo[e][1,4]diazepin-2-one]
Cellular protection at 75 μM (%) [1]: 2.4%
inhibition at 25 µM ([1]; 25 μM compound): 26.5%
effect on primary and progeny infection for Simkania [2]: inhibitor effect on primary and progeny infection
concentration at which maximal inhibition of Sn replication was observed [2]: 75 µM
effect on Sn inclusions (transmission electron microscopy) [2]: inclusions were smaller
infectivity in the Ctr progeny (HSP60 immunoblot) [3]: significant reduced infectivity in the progeny

O=C1CN=C(c2ccccc2Cl)c2cc(Cl)ccc2N1 [HA197, 7-chloro-5-(2-chlorophenyl)-1,3-dihydro-2H-benzo[e][1,4]diazepin-2-one]
Cellular protection at 75 μM (%) [1]: 84.3%
inhibition at 25 µM ([1]; 25 μM compound): 90.6%

O=C1CN(C2CCCC2)C(c2ccccc2)c2cc(Br)ccc2N1 (stereo not drawn) [HA229, 7-bromo-4-cyclopentyl-5-phenyl-1,3,4,5-tetrahydro-2H-benzo[e][1,4]diazepin-2-one]
inhibition at 25 µM ([1]; 25 μM compound): 20.2%

O=C1CN=C(c2ccccc2)c2cc(Br)ccc2N1 [VP173, 7-bromo-5-phenyl-1,3-dihydro-2H-benzo[e][1,4]diazepin-2-one]
Cellular protection at 75 μM (%) [1]: 100%
Cellular protection at 75 μM (%) ([1]; listed as VP 173): full protection
inhibition at 25 µM ([1]; 25 μM compound): 61.5%

CCCN1CC(=O)Nc2ccc(Br)cc2C1c1ccccc1 (stereo not drawn) [VP-184, 7-bromo-5-phenyl-4-propyl-1,3,4,5-tetrahydro-2H-benzo[e][1,4]diazepin-2-one]
effect on primary and progeny infection for Simkania [2]: inhibitor effect on primary and progeny infection
concentration at which maximal inhibition of Sn replication was observed [2]: 25 µM
effect on Sn inclusions (transmission electron microscopy) [2]: strongly reduced Sn inclusion formation, size, numbers and Sn replication

CC1CCC(N2CC(=O)Nc3ccc(Br)cc3C2c2ccccc2)C1 (stereo not drawn) [HA280, 7-bromo-4-(3-methylcyclopentyl)-5-phenyl-1,3,4,5-tetrahydro-2H-benzo[e][1,4]diazepin-2-one]
Cellular protection at 25 μM (%) ([1]; 25 μM compound): full protection
inhibition at 25 µM ([1]; 25 μM compound): 100%

O=C1CNC(c2ccccc2)c2cc(Br)ccc2N1 (stereo not drawn) [VP174, 7-bromo-5-phenyl-1,3,4,5-tetrahydro-2H-benzo[e][1,4]diazepin-2-one]
Cellular protection at 75 μM (%) [1]: 52.8%
inhibition at 25 µM ([1]; 25 μM compound): 27.6%
